Active and inactive are the calls of the source. The rule behind the calls is not given here. Bounds are passed on as bounds.

Assay [1] has as its target Pyruvate kinase PKM (Homo sapiens, UniProt P14618). Nature of the assay: Activation of recombinant human PKM2 incubated for 40 mins by pyruvate kinase assay.
Assay [2] has as its system T-cell. The assay can be described thus: Antiproliferative activity against concanavalin A-stimulated C57BL/6 mouse T cells measured after 48 hrs by CCK8 assay. It is filed as functional, cell-based. Particulars: C57BL/6, T-cell. (In general: Tetrazolium assays rely on reduction of a dye to a coloured formazan, in cell work by metabolically active cells.)
Assay [3] concerns Mus musculus. Nature of the assay: Antiinflammatory activity in DSS-induced colitis female C57BL/6 mouse model assessed as reduction in shortening of colon length at 200 mg/kg, ip administered for 12 days with subsequent treatment of DSS for 9 days followed by drinking water for 3 days. In kind it is functional, organism-based. Particulars: time 12.0 day.

Sequence of Pyruvate kinase PKM (P14618 whole entry): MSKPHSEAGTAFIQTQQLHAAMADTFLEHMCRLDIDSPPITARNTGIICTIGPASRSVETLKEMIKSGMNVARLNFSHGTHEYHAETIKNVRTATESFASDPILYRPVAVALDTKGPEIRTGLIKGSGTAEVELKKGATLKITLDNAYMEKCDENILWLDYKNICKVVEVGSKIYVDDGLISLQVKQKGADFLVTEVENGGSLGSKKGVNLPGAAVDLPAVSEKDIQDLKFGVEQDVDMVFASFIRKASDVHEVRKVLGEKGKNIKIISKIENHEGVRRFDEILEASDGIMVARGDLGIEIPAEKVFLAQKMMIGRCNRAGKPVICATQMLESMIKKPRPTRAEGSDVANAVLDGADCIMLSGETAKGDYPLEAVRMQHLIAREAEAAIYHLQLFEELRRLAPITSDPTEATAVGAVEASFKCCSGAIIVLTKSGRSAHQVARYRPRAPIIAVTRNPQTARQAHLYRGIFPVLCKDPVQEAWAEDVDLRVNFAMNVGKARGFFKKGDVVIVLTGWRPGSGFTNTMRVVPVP

Usually AC50 stands for the concentration at which the activity in the assay is half-maximal. The term IC50 denotes the concentration that gives 50% inhibition. A high value points to weaker potency. Regarding `C=C1C(=O)O[C@H]2[C@H]1CC/C(CNS(C)(=O)=O)=C\CC[C@@]1(C)O[C@@H]21`, the AC50 in assay [1] was greater than 3 µM. For the same compound, the IC50 in assay [2] was determined as 3.15 µM.

For the compound `C=C1C(=O)O[C@H]2[C@H]1CC/C(CNS(=O)(=O)c1ccc([N+](=O)[O-])cc1)=C\CC[C@@]1(C)O[C@@H]21`, the AC50 in assay [1] came to 0.966 µM. In addition, the IC50 in assay [2] is 1.32 µM.

In the case of `C=C1C(=O)O[C@H]2[C@H]1CC/C(CNS(=O)(=O)c1ccc(OC)cc1)=C\CC[C@@]1(C)O[C@@H]21`, in assay [1], the half-maximal activity concentration (AC50) came out at 0.492 µM. This compound showed an IC50 in assay [2] of 1.04 µM.

In assay [2], `C/C1=C\CC[C@@]2(C)O[C@H]2[C@H]2OC(=O)/C(=C/c3cccc4ccccc34)[C@@H]2CC1` returned an IC50 of 4.53 µM.

As for `C=C1C(=O)O[C@H]2[C@H]1CC/C(COC(=O)N1CCCC1)=C\CC[C@@]1(C)O[C@@H]21`, the AC50 in assay [1] amounted to 0.736 µM. The compound also came in with an IC50 in assay [2] of 1.78 µM.

With `C=C1C(=O)O[C@H]2[C@H]1CC/C(COC(=O)NCCC)=C\CC[C@@]1(C)O[C@@H]21`, the AC50 in assay [1] was 0.812 µM. Moreover, the IC50 in assay [2] worked out at 1.27 µM.

Consider `COc1ccc(/C=C2/C(=O)O[C@H]3[C@H]2CC/C(C)=C/CC[C@@]2(C)O[C@@H]32)cc1`, for which the IC50 in assay [2] stood at 4.6 µM.

On to `C=C1C(=O)O[C@H]2[C@H]1CC/C(COC(=O)NCCN(C)C)=C\CC[C@@]1(C)O[C@@H]21`, for which the AC50 in assay [1] was greater than 3 µM. In addition, half-maximal inhibition in assay [2] (IC50) was put at 2.88 µM.

Regarding `C=C1C(=O)O[C@H]2[C@H]1CC/C(CNS(=O)(=O)CC)=C\CC[C@@]1(C)O[C@@H]21`, the AC50 in assay [1] is greater than 3 µM. The compound further displayed an IC50 in assay [2] of 2.97 µM.

With `C=C1C(=O)O[C@H]2[C@H]1CC/C(COC)=C\CC[C@@]1(C)O[C@@H]21`, the AC50 in assay [1] is greater than 3 µM. In assay [2], this compound came in with an IC50 of 2.33 µM.

In the case of `C=C1C(=O)O[C@H]2[C@H]1CC/C(COC(=O)N(C)C)=C\CC[C@@]1(C)O[C@@H]21`, the AC50 in assay [1] came out at 1.57 µM. The IC50 in assay [2] came out at 1.63 µM.

With `C=C1C(=O)O[C@H]2[C@H]1CC/C(COC(=O)N1CCN(C)CC1)=C\CC[C@@]1(C)O[C@@H]21`, in assay [1], the AC50 is 0.567 µM. The compound further gave an IC50 in assay [2] of 1.04 µM.

For the compound `C=C1C(=O)O[C@H]2[C@H]1CC/C(COC(=O)NOC)=C\CC[C@@]1(C)O[C@@H]21`, the AC50 in assay [1] was greater than 3 µM. Also, in assay [2], inhibition was half-maximal at 2.34 µM (IC50).

With `C=C1C(=O)O[C@H]2[C@H]1CC/C(COC(=O)NCC)=C\CC[C@@]1(C)O[C@@H]21`, the AC50 in assay [1] was 2.22 µM. The compound further yielded an IC50 in assay [2] of 1.7 µM.

In the case of `C=C1C(=O)O[C@H]2[C@H]1CC/C(C=O)=C\CC[C@@]1(C)O[C@@H]21`, the IC50 in assay [2] is greater than 10 µM.

As for `C=C1C(=O)O[C@H]2[C@H]1CC/C(CO)=C\CC[C@@]1(C)O[C@@H]21`, the AC50 in assay [1] is 0.867 µM. In assay [2], this compound displayed an IC50 of 1.59 µM.

In assay [2], `C/C1=C\CC[C@@]2(C)O[C@H]2[C@H]2OC(=O)/C(=C/c3ccccc3)[C@@H]2CC1` came in with an IC50 of 4.27 µM.

For `C=C1C(=O)O[C@H]2[C@H]1CC/C(CNS(=O)(=O)C(F)(F)F)=C\CC[C@@]1(C)O[C@@H]21`, in assay [1], the AC50 is greater than 3 µM. In assay [2], the IC50 amounted to 2.98 µM.

`C=C1C(=O)O[C@H]2[C@H]1C[C@@H](Br)/C(C)=C/CC[C@@]1(C)O[C@@H]21` registered an IC50 in assay [2] of 3.84 µM. In other words, the single-digit micromolar range.

In the case of `C=C1C(=O)O[C@H]2[C@H]1CC/C(CNS(=O)(=O)c1ccccc1)=C\CC[C@@]1(C)O[C@@H]21`, in assay [1], the AC50 turned out to be 0.637 µM. The IC50 in assay [2] worked out at 1.2 µM.

`C=C1C(=O)O[C@H]2[C@H]1CC/C(COC(=O)N1CCN(CC)CC1)=C\CC[C@@]1(C)O[C@@H]21`: the AC50 in assay [1] was greater than 3 µM. The compound also showed an IC50 in assay [2] of 2.37 µM.

Take `C=C1C(=O)O[C@H]2[C@H]1CC/C(CNS(=O)(=O)C1CC1)=C\CC[C@@]1(C)O[C@@H]21`: in assay [1], the AC50 is greater than 3 µM. This compound also returned an IC50 in assay [2] of 2.65 µM.

Regarding `C=C1C(=O)O[C@H]2[C@H]1CC/C(COC(=O)NCCN(CC)CC)=C\CC[C@@]1(C)O[C@@H]21`, in assay [1], the AC50 is greater than 3 µM. Moreover, in assay [2], the midpoint of inhibition, the IC50, lay at 2.52 µM.

In the case of `C=C1C(=O)O[C@H]2[C@H]1C[C@@H](F)/C(C)=C/CC[C@@]1(C)O[C@@H]21`, the AC50 in assay [1] is greater than 3 µM. In assay [2], this compound showed an IC50 of 2.37 µM.

`C=C1C(=O)O[C@H]2[C@H]1C[C@@H](O)/C(C)=C/CC[C@@]1(C)O[C@@H]21` gave an IC50 in assay [2] of 3.47 µM.

Turning to `C=C1C(=O)O[C@H]2[C@H]1CC/C(CNS(=O)(=O)c1ccc(F)cc1)=C\CC[C@@]1(C)O[C@@H]21`, in assay [1], the AC50 is 1.23 µM. In addition, it took 1.5 µM to reach half-maximal inhibition in assay [2] (IC50).

As to `C=C1C(=O)O[C@H]2[C@H]1CC/C(COC(=O)NC)=C\CC[C@@]1(C)O[C@@H]21`, the AC50 in assay [1] is greater than 3 µM. The compound also registered an IC50 in assay [2] of 2.6 µM.

For the compound `C=C1C(=O)O[C@@H]2C3O[C@]3(C)CC/C=C(\C)CC[C@@H]12` (some centres undefined), the AC50 in assay [1] is 1.06 µM. Moreover, inhibition in assay [2] was half-maximal at 1.96 µM (IC50).

As to `Nc1ccc(O)c(C(=O)O)c1`, in assay [3], the result was Active.

The compound `C=C1C(=O)O[C@H]2[C@H]1CC/C(C(=O)O)=C\CC[C@@]1(C)O[C@@H]21` yielded an IC50 in assay [2] greater than 10 µM.

As to `C=C1C(=O)O[C@H]2[C@H]1CC/C(COC(=O)N(CCC)CCC)=C\CC[C@@]1(C)O[C@@H]21`, the AC50 in assay [1] was found to be 0.66 µM. This compound also yielded an IC50 in assay [2] of 1.18 µM.

(Values after ChEMBL document CHEMBL5550146, “Design, synthesis, and biological evaluation of novel sesquiterpene lactone derivatives as PKM2 activators with potent anti-ulcerative colitis activities” (Eur J Med Chem, 2024).)
